Data taken from US4478828A, “Nonapeptide having immunostimulative activity, process for the preparation thereof, and its use” (Hoechst Aktiengesellschaft, priority 1982, dated 1984).
Square brackets hold non-standard residues; d marks the D form. Peptide text beside a SMILES is read from it. pGlu = O=C1CC[C@@H](C(=O)O)N1

What was measured:
spleen cells of mice = test: Plaqueforming Cell Assay (PFC test), in vitro immunization with sheep erythrocytes; assay type: cell-based; conditions: for Plaques/10^6 cells: added daily, 5 days, control 768
Procedure: (§1) The nonapeptide of the invention was tested in the Plaqueforming Cell Assay (PFC test) and in the phythemagglutinin stimulation test (PHA test) for its lymphocyte-stimulative action.
In the PFC test, cell cultures of freshly dissected spleens of mice (2×10^7 spleen cells per ml) were prepared in RPMI 1640 and 30 μl of fetal calf serum (FCS) per ml of cell culture. In vitro immunization is carried out with 5×10^7 sheep erythrocytes/ml. The test cell cultures are incubated daily with the corresponding dose of the test substance. After a test period of 5 days, the cells are centrifuged off, washed with RPMI 1640 medium, and the direct PCF test is carried out as follows: The cells are mixed in an agarose solution with a 10% sheep erythrocyte suspension, and poured onto a plane surface. In the gel layer so formed the stimulated lymphocytes set free antibodies in the subsequent incubation which diffuse in the environment and adhere to the sheep erythrocytes present in these places. After addition of guinea pig complement the red blood cells lyse. Light-colored, circular spots are formed in the reddish-brown gel, which can be discerned with a naked eye, and which are the hemolysis halos of the plaques. In the center of such hemoylsis halos there is an antibody-producing cell. The number of lymphoid cells which form specific immunoglobulins can therefore be equalized with the plaque values found.

[1] = toxic effects on administration (general statement)
lymphocytes = test: phythemagglutinin stimulation test (PHA test), 3H-thymidine incorporation; assay type: cell-based; conditions: for Stimulation index SI / Incorporation of 3H-thymidine: 20 μg PHA/ml, 72 hours; for Incorporation of 3H-thymidine: control 114 311
Procedure: as §1
The PHA test allows conclusions on the amount of mature, that is, stimulable, lymphocytes by means of the function test on stimulability with the phytolectin PHA. The lectin, like bacterial or viral antigens, incites the lymphocytes to a blast transformation. It causesd proliferation either directly or by induction of lymphokine secretion.
The incorporation of radioactive thymidine within a defined period of time is then the measure for the number of stimulated cells. The mature or immunologically potent T cells only are stimulated. Thus, the influence of a substance on the maturation of lymphocytes can be observed by means of this test. However, stimulation must remain below the optimum; for, at a higher concentration other subpopulations of lymphocytes are stimulated, too, and the effect cannot be observed any longer. The peptide of the invention was added to the culture medium in varying concentrations.

SMILES: C[C@@H](O)[C@H](NC(=O)[C@H](CO)NC(=O)[C@H](CO)NC(=O)[C@H](CO)NC(=O)[C@H](CC(=O)O)NC(=O)[C@@H]1CCC(=O)N1)C(=O)NCC(=O)N[C@@H](Cc1c[nH]c2ccccc12)C(=O)N[C@@H](CC(N)=O)C(=O)O [nonapeptide, L-pyroglutamyl-L-aspartyl-L-seryl-L-seryl-L-seryl-L-threonyl-glycyl-L-tryptophyl-L-asparagine] ([pGlu]DSSSTGWN-OH)
- Plaques/10^6 cells (spleen cells of mice; 1 ng/ml nonapeptide): 908 Plaques/10^6 cells
- Plaques/10^6 cells (spleen cells of mice; 10 ng/ml nonapeptide): 1112 Plaques/10^6 cells
- Plaques/10^6 cells (spleen cells of mice; 100 ng/ml nonapeptide): 1024 Plaques/10^6 cells
- Plaques/10^6 cells (spleen cells of mice; 1 μg/ml nonapeptide): 817 Plaques/10^6 cells
- Plaques/10^6 cells (spleen cells of mice; 5 μg/ml nonapeptide): 802 Plaques/10^6 cells
- stimulation of the lymphocytes depending on the dose (spleen cells of mice; PFC test, in words): bell-shaped curve
- toxic effects [1]: toxic effects have not been observed hitherto
- Stimulation index SI (lymphocytes; 0.0125 μg/ml nonapeptide): 0.89
- Incorporation of 3H-thymidine (lymphocytes; 0.0125 μg/ml nonapeptide): 101 594 cpm
- Stimulation index SI (lymphocytes; 0.125 μg/ml nonapeptide): 1.20
- Incorporation of 3H-thymidine (lymphocytes; 0.125 μg/ml nonapeptide): 137 519 cpm
- Stimulation index SI (lymphocytes; 0.5 μg/ml nonapeptide): 1.26
- Incorporation of 3H-thymidine (lymphocytes; 0.5 μg/ml nonapeptide): 143 831 cpm
- Stimulation index SI (lymphocytes; 1.0 μg/ml nonapeptide): 1.00
- Incorporation of 3H-thymidine (lymphocytes; 1.0 μg/ml nonapeptide): 113 978 cpm
- Stimulation index SI (lymphocytes; 5.0 μg/ml nonapeptide): 0.94
- Incorporation of 3H-thymidine (lymphocytes; 5.0 μg/ml nonapeptide): 107 670 cpm
- stimulation of the lymphocytes depending on the dose (lymphocytes; PHA test, in words): bell-shaped curve
